{"source": "ChEMBL document CHEMBL5346945", "about": "“Discovery and Optimization of the First ATP Competitive Type-III c-MET Inhibitor” (J Med Chem, 2023)", "key": {"[1]": {"test": "Lipophilicity, logD of compound in octanol and water at pH 7.4 measured by shake-flask method", "assay_type": "physicochemical"}, "[2]": {"target": "T1, Hepatocyte growth factor receptor (Homo sapiens, UniProt P08581)", "T1 sequence (P08581 whole entry)": "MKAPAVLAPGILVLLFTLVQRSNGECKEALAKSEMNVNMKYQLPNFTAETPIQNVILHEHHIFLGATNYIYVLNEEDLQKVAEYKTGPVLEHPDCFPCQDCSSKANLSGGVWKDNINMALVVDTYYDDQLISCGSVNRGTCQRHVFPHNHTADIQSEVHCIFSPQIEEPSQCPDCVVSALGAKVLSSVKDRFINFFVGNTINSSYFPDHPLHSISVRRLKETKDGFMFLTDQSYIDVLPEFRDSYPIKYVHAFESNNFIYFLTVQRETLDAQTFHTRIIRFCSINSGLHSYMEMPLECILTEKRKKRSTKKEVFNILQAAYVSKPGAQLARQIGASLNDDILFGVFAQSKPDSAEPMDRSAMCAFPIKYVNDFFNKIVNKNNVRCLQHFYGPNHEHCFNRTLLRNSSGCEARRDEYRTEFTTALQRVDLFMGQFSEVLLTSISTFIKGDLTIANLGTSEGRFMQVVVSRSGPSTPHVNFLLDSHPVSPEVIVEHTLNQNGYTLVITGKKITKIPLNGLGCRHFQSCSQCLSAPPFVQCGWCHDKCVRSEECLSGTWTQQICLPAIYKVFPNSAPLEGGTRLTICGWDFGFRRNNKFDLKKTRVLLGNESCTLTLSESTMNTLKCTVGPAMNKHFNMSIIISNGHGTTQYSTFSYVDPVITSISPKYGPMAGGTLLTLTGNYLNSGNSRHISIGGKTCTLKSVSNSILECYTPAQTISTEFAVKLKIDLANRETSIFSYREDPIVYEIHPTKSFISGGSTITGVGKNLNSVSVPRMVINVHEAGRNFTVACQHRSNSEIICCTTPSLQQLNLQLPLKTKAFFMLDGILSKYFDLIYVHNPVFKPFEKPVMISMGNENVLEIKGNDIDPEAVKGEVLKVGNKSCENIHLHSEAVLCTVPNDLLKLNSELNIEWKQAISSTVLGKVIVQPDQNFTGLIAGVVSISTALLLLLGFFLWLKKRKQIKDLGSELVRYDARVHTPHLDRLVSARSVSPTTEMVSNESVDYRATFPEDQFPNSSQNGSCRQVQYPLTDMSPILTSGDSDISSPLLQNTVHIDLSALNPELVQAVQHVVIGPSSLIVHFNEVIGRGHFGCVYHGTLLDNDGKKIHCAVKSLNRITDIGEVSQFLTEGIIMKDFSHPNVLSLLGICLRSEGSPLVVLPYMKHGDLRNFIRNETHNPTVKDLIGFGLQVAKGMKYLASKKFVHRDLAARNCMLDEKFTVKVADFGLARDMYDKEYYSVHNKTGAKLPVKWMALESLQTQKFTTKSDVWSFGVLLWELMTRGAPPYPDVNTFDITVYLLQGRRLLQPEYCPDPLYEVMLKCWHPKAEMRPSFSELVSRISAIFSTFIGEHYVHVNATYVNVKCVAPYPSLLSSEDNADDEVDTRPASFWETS", "test": "Inhibition of wild type c-MET (unknown origin) using ATP and poly(L-glutamic acid-L-tyrosine) as substrate incubated for 60 mins measured by ADP-Glo kinase assay"}, "[3]": {"test": "Metabolic stability in Han Wistar rat hepatocytes assessed as intrinsic clearance measured per million cells at 1 uM measured at 0.5 to 2 hrs by LC-MS/MS analysis", "assay_type": "ADME, cell-based, Hepatocyte", "conditions": "time 0.5-2 hrs, read-out: CLH"}, "[4]": {"test": "Metabolic stability in human liver microsomes assessed as intrinsic clearance at 1 uM preincubated with NADPH for 8 mins followed by compound addition measured at 0.5 to 30 mins by LC-MS/MS analysis", "assay_type": "ADME, Microsome", "conditions": "time 0.5-30 min, read-out: CLH"}, "[5]": {"target": "Macrophage-stimulating protein receptor (Homo sapiens) (UniProt Q04912)", "sequence (Q04912 25-304 limits assumed)": "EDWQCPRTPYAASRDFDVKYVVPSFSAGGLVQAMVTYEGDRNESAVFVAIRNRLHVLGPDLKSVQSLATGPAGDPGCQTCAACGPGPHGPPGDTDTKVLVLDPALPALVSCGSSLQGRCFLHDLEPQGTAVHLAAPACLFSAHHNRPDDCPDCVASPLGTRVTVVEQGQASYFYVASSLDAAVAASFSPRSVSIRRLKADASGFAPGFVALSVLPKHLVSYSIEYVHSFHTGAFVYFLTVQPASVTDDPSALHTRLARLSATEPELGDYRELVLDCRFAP", "sequence (Q04912 310-1400 limits assumed)": "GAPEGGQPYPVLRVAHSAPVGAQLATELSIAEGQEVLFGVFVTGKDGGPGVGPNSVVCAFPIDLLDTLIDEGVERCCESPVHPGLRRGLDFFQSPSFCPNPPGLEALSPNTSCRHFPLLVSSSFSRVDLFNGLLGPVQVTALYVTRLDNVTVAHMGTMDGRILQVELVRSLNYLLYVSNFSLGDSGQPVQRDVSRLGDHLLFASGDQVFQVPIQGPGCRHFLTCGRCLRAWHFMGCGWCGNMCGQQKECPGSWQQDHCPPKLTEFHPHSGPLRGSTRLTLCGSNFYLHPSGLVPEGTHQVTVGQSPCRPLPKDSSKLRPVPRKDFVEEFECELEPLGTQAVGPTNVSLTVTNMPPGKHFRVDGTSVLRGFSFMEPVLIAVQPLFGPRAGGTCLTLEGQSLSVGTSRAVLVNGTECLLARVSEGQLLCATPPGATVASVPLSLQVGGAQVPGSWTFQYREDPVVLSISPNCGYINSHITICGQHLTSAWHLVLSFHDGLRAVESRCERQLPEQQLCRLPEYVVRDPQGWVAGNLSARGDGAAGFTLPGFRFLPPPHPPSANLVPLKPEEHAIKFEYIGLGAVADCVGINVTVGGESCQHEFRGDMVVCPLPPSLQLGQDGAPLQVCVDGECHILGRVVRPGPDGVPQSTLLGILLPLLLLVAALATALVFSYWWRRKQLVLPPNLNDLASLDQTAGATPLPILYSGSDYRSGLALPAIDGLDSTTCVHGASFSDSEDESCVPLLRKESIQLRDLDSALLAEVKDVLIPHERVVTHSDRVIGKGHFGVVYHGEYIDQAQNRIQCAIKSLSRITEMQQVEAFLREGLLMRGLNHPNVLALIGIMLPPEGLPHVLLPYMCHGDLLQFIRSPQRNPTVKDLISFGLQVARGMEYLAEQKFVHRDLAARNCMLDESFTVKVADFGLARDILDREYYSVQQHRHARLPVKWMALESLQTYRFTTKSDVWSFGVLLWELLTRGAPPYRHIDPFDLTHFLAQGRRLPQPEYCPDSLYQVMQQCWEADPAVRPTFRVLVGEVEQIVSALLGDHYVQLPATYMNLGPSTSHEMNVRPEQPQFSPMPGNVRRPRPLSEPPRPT", "conditions": "dose 100.0 nM", "description": "Inhibition of MST1R (unknown origin) at 100 nM relative to control"}, "[6]": {"target": "T1, Hepatocyte growth factor receptor", "conditions": "dose 100.0 nM", "description": "Inhibition of c-MET (unknown origin) at 100 nM relative to control"}, "[7]": {"target": "T2, Tyrosine-protein kinase Mer (Homo sapiens) (UniProt Q12866)", "T2 sequence (whole entry)": "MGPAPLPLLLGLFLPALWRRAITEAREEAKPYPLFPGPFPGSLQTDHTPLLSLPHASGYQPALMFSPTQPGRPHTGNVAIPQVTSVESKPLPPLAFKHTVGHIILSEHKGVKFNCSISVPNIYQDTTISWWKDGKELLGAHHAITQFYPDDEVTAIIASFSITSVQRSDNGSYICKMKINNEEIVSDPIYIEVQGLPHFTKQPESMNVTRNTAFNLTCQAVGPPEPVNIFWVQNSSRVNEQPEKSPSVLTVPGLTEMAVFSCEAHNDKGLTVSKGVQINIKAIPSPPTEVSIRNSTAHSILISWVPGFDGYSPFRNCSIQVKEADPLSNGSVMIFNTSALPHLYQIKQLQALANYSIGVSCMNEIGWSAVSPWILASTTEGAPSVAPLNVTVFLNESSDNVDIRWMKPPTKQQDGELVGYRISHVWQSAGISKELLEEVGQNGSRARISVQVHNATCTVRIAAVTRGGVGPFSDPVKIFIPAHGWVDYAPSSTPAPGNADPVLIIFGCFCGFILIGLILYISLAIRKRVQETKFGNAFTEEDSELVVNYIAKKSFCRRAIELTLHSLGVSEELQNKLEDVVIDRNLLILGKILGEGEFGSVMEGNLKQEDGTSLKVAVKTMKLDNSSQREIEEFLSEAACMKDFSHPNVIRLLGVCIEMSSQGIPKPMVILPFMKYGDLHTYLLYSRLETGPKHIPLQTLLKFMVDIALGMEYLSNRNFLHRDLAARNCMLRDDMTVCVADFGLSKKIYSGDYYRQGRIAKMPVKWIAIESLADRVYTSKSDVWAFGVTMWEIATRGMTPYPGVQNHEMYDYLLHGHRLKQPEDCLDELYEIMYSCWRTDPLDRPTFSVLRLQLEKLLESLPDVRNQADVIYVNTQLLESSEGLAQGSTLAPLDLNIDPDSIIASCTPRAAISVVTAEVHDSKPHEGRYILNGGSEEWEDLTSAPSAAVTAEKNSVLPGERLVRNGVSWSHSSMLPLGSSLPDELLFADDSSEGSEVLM", "conditions": "dose 100.0 nM", "description": "Inhibition of MERTK (unknown origin) at 100 nM relative to control"}, "[8]": {"target": "T3, Tyrosine-protein kinase receptor TYRO3 (Homo sapiens) (UniProt Q06418)", "T3 sequence (whole entry)": "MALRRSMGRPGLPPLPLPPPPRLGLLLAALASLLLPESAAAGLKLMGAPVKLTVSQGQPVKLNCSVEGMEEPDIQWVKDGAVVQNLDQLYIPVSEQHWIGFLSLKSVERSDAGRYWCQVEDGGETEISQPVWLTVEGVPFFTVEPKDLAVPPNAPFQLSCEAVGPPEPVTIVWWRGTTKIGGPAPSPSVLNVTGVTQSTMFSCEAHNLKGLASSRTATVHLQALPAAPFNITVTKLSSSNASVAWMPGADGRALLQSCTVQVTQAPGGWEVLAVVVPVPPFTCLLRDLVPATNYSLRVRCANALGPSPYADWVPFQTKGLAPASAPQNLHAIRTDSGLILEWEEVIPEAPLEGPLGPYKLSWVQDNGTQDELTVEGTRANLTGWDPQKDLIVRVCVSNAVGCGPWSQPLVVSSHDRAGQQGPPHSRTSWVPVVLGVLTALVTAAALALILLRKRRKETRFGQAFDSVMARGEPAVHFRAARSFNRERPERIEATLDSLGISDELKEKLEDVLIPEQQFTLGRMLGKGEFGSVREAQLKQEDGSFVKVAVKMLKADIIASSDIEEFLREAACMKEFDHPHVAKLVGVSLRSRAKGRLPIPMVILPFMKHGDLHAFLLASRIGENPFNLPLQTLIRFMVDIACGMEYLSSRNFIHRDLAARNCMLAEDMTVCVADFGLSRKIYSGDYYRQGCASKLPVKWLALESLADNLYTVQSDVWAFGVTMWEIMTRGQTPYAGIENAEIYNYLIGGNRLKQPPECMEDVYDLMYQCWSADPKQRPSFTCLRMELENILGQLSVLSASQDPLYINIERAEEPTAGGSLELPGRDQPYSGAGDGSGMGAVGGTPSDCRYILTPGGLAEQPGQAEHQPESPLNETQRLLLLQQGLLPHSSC", "conditions": "dose 100.0 nM", "description": "Inhibition of TYRO3 (unknown origin) at 100 nM relative to control"}}, "data": [{"smiles": "C#Cc1n[nH]c2c(-c3cn([C@@H](C)c4ccccn4)c(=O)[nH]c3=O)cc(F)cc12", "values": [{"measurement": "logD", "setting": "[1]", "value": 2.7}, {"measurement": "IC50", "setting": "[2]", "value": 16, "unit": "nM"}, {"measurement": "hepatocyte CLint at 1 µM", "setting": "[3]", "value": 6.07, "unit": "µL/min/1e6 cells"}, {"measurement": "microsomal CLint at 1 µM", "setting": "[4]", "value": 18, "unit": "µL/min/mg"}, {"measurement": "inhibition", "setting": "[5]", "value": "< 50", "unit": "%"}, {"measurement": "inhibition", "setting": "[6]", "value": 80, "unit": "%"}, {"measurement": "inhibition", "setting": "[7]", "value": 75.3, "unit": "%"}, {"measurement": "inhibition", "setting": "[8]", "value": "< 50", "unit": "%"}]}]}
